Laboratory results reported in patent US20090209527A1, “Methods for Using Rapamycin Analogues in the Treatment of Neurological Disorders” (Wyeth, priority 2008, published 2009).
“Also recorded” adds a separate entry of the source.

Tests used:
cortical neuron cultures = assay: Cortical neuron assay (neurite outgrowth in dissociated cortical neuron cultures); assay type: cell-based, rat
Procedure: Dissociated cortical neuron cultures were prepared as previously described (Liu et al., Screening of Immunophilin Ligands by Quantitative Analysis of Neurofilament Expression and Neurite Outgrowth in Cultured Neurons and Cells, J. Neurosci. Methods, 2007 Jul. 30; 163(2):310-20).
Briefly, embryonic day 15 rat fetuses were collected and dissected in ice-cold PBS. Dissected cortices were pooled together and transferred to an enzymatic dissociation medium containing papain. After 30 minutes, the tissue was mechanically triturated with a fire-polished glass Pasteur pipette. Single-cell suspensions in complete media were seeded on poly-L-ornithine and laminin coated 96-well plates. After 24 hours, cultures were treated with various concentrations of compound for 72 hours. The cultures were then fixed and stained with an anti-tubulin primary antibody (TUJ-1) and a fluorescent-tagged secondary antibody. Neurite outgrowth was determined by using the Enhanced Neurite Outgrowth (ENO) algorithm with the Cellomics ArrayScan and expressed as average neurite length or total neurite length per cell.

pMCAO in rats = assay: Further pMCAO studies, treatment paradigms (first dose 2, 6 or 24 hours post-occlusion); assay type: in vivo, rat; conditions: for neurological function following pMCAO vs vehicle: 5 total doses, 3-week period; for neurological function following pMCAO, long-term: additional 3 months
From the text: Rats were subjected to pMCAO and treated with either the compound of Example 2 delivered intravenously into rat tail vein [iv vehicle: 5% Tween 80, 5% PEG 400, 4% ethanol] or vehicle alone. Three different treatment paradigms were used to determine the clinical relevance of the compound of Example 2. Long-term sensorimotor deficits are monitored (tactile/proprioceptive/hindlimb placement tests) over a 3-week and 6-month period. The animals are scored on a scale of 0-12 (normal to severe neurological deficits).
In the first study, the first dose of 10 mg/kg of the compound of Example 2 is given 2 hours post-occlusion, followed by 4 additional doses, 24 hours apart (5 total doses). Neurological deficits were monitored over a 3-week period.
In the second study, the first dose of the compound of Example 2 is given 6 hours post-occlusion, followed by 4 additional doses, 24 hours apart (5 total doses). Neurological deficits were monitored over a 3-week period.
These animals were maintained for an additional 3 months. During this period, neurological deficits were continually monitored, to determine whether the effect seen at 21 days is stable and long lasting.
In the third study, the first dose of the compound of Example 2 is given 24 hours post-occlusion, followed by 4 additional doses, 24 hours apart (5 total doses). Neurological deficits were monitored over a 3-week period.
Brains from animals in the third study were collected and processed for neuronal, regenerative, and cell death markers.

[1] = 10 mg/kg iv, first dose 6 hours post-occlusion
[2] = 30 mg/kg iv, first dose 6 hours post-occlusion
[3] = 30 mg/kg, third study (first dose 24 hours post-occlusion)
[4] = 6 hour post-occlusion, dose not stated

## CO[C@H]1C[C@@H]2CC[C@@H](C)[C@@](O)(O2)C(=O)C(=O)N2CCCC[C@H]2C(=O)O[C@H]([C@H](C)C[C@@H]2CC[C@@H](O)[C@H](OC)C2)CC(=O)[C@H](C)/C=C(\C)[C@@H](O)[C@@H](OC)C(=O)[C@H](C)C[C@H](C)[C@@H]2CC[C@H](/C=C/1C)ON2c1ccccc1 [Example 2, 9,27-dihydroxy-3-{2-[4-hydroxy-3-methoxycyclohexyl]-1-methylethyl}-10,21-dimethoxy-6,8,12,14,20,26-hexamethyl-37-phenyl-4,9,10,12,13,14,15,16,17,18,21,22,23,24,25,26,27,32,33,34,34a-henicosahydro-3H-23,27-epoxy-18,15-(epoxyimino)pyrido[2,1-c][1,4]oxazacyclohentriacontine-1,5,11,28,29(6H,31H)-pentone]
Cortical neuron cultures; Rattus norvegicus, Cortical neurone, 72 hours treatment, neurite outgrowth, read-out: EC50 in cortical neuron assays
  EC50: < 1000 nM
Cortical neuron cultures; summary statement
  neuronal survival and neurite outgrowth in cultured cortical neurons: promotes neuronal survival and neurite outgrowth
pMCAO in rats; 3 mg/kg iv, first dose 6 hours post-occlusion
  neurological function following pMCAO vs vehicle: did not improve neurological function
pMCAO in rats; 3 mg/kg iv, first dose 24 hours post-occlusion
  neurological function following pMCAO vs vehicle: did not improve neurological function
pMCAO in rats; 10 mg/kg iv, first dose 2 hours post-occlusion
  neurological function following pMCAO vs vehicle: significantly improved and accelerated neurological function; also recorded: improves neurological function
pMCAO in rats; [1]
  neurological function following pMCAO vs vehicle: significantly improved and accelerated neurological function
  neurological function following pMCAO, long-term: further improved neurological function and this improvement was stable and long lasting
pMCAO in rats; 10 mg/kg iv, first dose 24 hours post-occlusion
  neurological function following pMCAO vs vehicle: did not improve neurological function
pMCAO in rats; [2]
  neurological function following pMCAO vs vehicle: significantly improved and accelerated neurological function
  neurological function following pMCAO, long-term: further improved neurological function and this improvement was stable and long lasting
pMCAO in rats; 30 mg/kg iv, first dose 24 hours post-occlusion
  neurological function following pMCAO vs vehicle: significantly improved and accelerated neurological function
pMCAO in rats; [3]
  apoptotic cell death (TUNEL labeling) in the hippocampus: reducing apoptotic cell death
  neuroprotection (Neu-N positive cells) in the hippocampus: promotes neuroprotection
  neuroregeneration (GAP-43 labeling) in the cortex: promotes neuroregeneration in the cortex
pMCAO in rats; [4]
  neurological function following pMCAO (3-weeks) in rats (FIG. 12): improves neurological function
  neurological function following pMCAO (3 months) in rats (FIG. 13): improves neurological function
pMCAO in rats; 24 hour post-occlusion, dose not stated
  neurological function following pMCAO (3 weeks) in rats (FIG. 14): improves neurological function
pMCAO in rats; dose not stated
  neuroregeneration in the hippocampus (FIG. 15): promotes neuroregeneration in the hippocampus
pMCAO in rats; rat models of ischemic stroke
  therapeutic window (time of first administration after onset of stroke): at least 24 hours
